Legend:
[1] = tested on: Rest, Isl1, Rreb1 regulons; test: iRegulon transcription factor-gene target regulatory network analysis; design: species or system mouse; conditions: day 7; lacripep vs PBS; NES>3
Text: To identify candidate transcription factors that regulate these gene sets, we performed transcription factor (TF)-gene target regulatory network analysis using iRegulon (37). iRegulon identifies transcription factor-binding motifs that are enriched in the genomic regions of a query gene set and predicts transcription factors that bind to them. […] ISL1 plays an essential role in the generation of sensory and sympathetic neurons (38 39), REST is a master regulator of neurogenesis that plays a role in modulating synaptic plasticity (40-42) and RREB1 regulates axon injury (43). […] The Isl1 exclusive gene set was also extensively enriched in genes involved with functional and structural nerve-mediated processes including visual perception (P=3.5E-27, e.g., Capb4, Vsx1), response to stimulus (P=9.7E-19; e.g., Slc17a7, Ush2a), synapse (P=9.4E-8, e.g. Magi2, Synpr) and neuron projection (P=6.4E-6, e.g., Cdh23, Kif1a) (FIG. 4F).
To identify regulatory networks underlying the impact of lacripep on tissue regeneration, we used the cytoscape application iRegulon (37) to predict master regulators, i.e., transcription factors whose regulons (transcriptional target sets) are highly enriched with the input gene list.

syndecan-1 (SDC1) = target: T1, syndecan-1 (SDC1) (Homo sapiens, UniProt P18827); conditions: cited from earlier work
T1 sequence (P18827 23-310): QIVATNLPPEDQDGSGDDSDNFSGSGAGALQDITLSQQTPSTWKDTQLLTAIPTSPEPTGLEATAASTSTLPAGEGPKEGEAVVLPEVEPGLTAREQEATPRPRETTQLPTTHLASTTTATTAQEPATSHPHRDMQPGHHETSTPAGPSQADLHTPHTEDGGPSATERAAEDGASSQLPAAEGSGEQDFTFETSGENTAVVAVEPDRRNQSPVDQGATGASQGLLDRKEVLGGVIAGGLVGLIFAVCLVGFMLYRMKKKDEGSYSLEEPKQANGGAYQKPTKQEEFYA

Aire KO mice [2] = test: Pilocarpine-stimulated (maximal) tear secretion in Aire KO mice; format: in vivo, mouse; conditions: between Aire KO treatment conditions; 4.5 mg/kg pilocarpine i.p.
Text: We next tested whether lacripep restored basal cell identity and barrier function by reducing immune cell infiltration. Prolonged desiccating stress from reduced tear production elicits an immune response in which activated CD4+ T cells home to the corneal epithelium and stroma (primarily accumulating at the limbal region) to modulate epithelial differentiation (17) and direct the development of autoimmune mediated dry eye (18).
Aire KO female mice aged 5 weeks were used for the study. All mice were topically treated with 5 μL per eye of 4 μM lacripep. Dosing was three times daily for 14 consecutive days. Lissamine green staining assessment and tear secretion assays were performed on each eye before treatment at baseline, 7 days and 14 days post treatment
(§1) Mice were anesthetized with isoflurane and basal tear secretion was then measured using a Zone-Quick phenol red thread (as indicated by the length of the tear-absorbed region in 15 seconds). Stimulated tear secretion was measured after 4.5 mg/kg of pilocarpine diluted in saline was injected into the peritoneum (i.p.). Ten minutes later, mice were anesthetized with isoflurane and tear secretion was measured using a Zone-Quick phenol red thread (Showa Yakuhin Kako Co. Ltd., Tokyo, Japan).

Aire KO mice [3] = test: Basal tear secretion (phenol red thread) in Aire KO dry eye mice; format: in vivo, mouse; conditions: day 15, 4 μM topical 3x per day for 14 days
Description: To determine the impact of lacripep on physiological (basal) tear secretion, lacripep (4 μM) or phosphate buffered saline (PBS, control) was topically applied to Aire KO corneas 3 times (3×) per day for 14 consecutive days (from 5 to 7 wk of age) and tear production was measured at day 0, 7 and 15 (FIG. 1A).
All procedures were approved by the UCSF Institutional Animal Care and Use Committee (IACUC) and adhered to the NIH Guide for the Care and Use of Laboratory Animals (Approval number: 332AN089075-02). Wild type (WT) and Aire-deficient mice on the BALB/c background (BALB/c Aire KO) were the gift of Mark Anderson, University of California, San Francisco. Adult female mice (aged between 5 and 7 weeks) were used in all experiments. […] Appropriate sample size was calculated using power calculations. […]
as §1

## Ac-KQFIENGSEFAQKLLKKFSLLKPWA-NH2 [lacripep, amino terminus acetylated, carboxyl terminus aminated]
[1]
  upregulated target genes of Isl1 regulon: 394 genes
  upregulated target genes of Rest regulon: 184 genes
  upregulated target genes of Rreb1 regulon: 254 genes
syndecan-1 (SDC1)
  binding and activation of syndecan-1: bind and activate
Aire KO mice [2]
  maximal tear secretion in response to pilocarpine: no difference
Aire KO mice [3]
  basal tear volumes relative to WT: 83 % of WT
